From patent US11352322B2, “Cyclopropyl-amide compounds as dual LSD1/HDAC inhibitors” (Jubilant Epicore LLC, priority 2016, dated 2022)
Where a name gives a salt, the structure may show the parent alone.

What was measured:
[1] = Metabolic stability in liver microsomes, HLM; conditions: 1 μM, NADPH
Description: (§1) The microsomal suspension was prepared by adding liver microsomes to 100 mM potassium phosphate buffer (pH7.4) to give a final protein concentration of 0.5 mg/mL. The stock solution of NCE (10 mM in DMSO) was added to the microsomes to provide a final concentration of 1 μM. […] Samples were vortexed and centrifuged at 5,000 rpm for 10 min to remove proteins. Supernatant were analyzed on LC-MS/MS.

[2] = Metabolic stability in liver microsomes, MLM; conditions: 1 μM, NADPH
Description: as §1

LSD1 = LSD1 (Homo sapiens (Human), UniProt O60341); assay: TR-FRET Assay for LSD1; conditions: read-out: LSD1 IC50
Description: TR-FRET Assay for LSD1 (Perkin Elmer)
Tranylcypromine (TCP), LSD1 inhibitor was procured from Selleckchem. […] Stop Solution containing 300 μM tranylcypromine in 1× LANCE Detection Buffer was added to the wells and incubated for 5 min at RT. Then, Detection mix containing 2 nM Eu-Ab and 50 nM ULight-Streptavidin in 1× LANCE Detection Buffer was prepared and added to the reaction mix. This mixture was incubated for 1 hour at room temperature.

MM1S = assay: Anticancer activity: Alamar Blue assay, MM1S; format: cell-based; conditions: Homo sapiens, MM1.S, read-out: MM1S EC50
Description: Cells were seeded at 5000 cells/per well in 96-well tissue culture plate and incubated at 37° C./5% CO2. After 16-24 hours, fresh media was added to the wells. Compounds were then (1% DMSO conc.) added to the cells at 10 concentrations ranging from 10-0.0005 uM prepared in 3-fold serial dilutions. Cells were incubated for 68-72 h at 37° C./5% CO2. Alamar Blue™ reagent was added and incubated for 1-3 hours at 37° C./5% CO2. Plates were read on fluorescence reader at 540 nm excitation, 590 nm emission wave lengths.

Question: For `O=C(NO)c1ccc(CCCN2CCC(CNC3CC3c3ccc(C(=O)N4CCCCC4)cc3)CC2)cc1` (stereo not drawn) [Example 54, N-hydroxy-4-(3-(4-(((2-(4-(piperidine-1-carbonyl)phenyl)cyclopropyl)amino)methyl)piperidin-1-yl)propyl)benzamide TFA Salt], which “Metabolic stability HLM % remaining in 30 min” value [1] is on record?
Answer: Its value is 65%.

Question: And the “Metabolic stability MLM % remaining in 30 min” value [2]?
Answer: Its value is 72%.

Question: What about the IC50 (LSD1) of the same compound?
Answer: Its IC50 is 23 nM.

Question: With `O=C(NO)c1ccc(CNC2CC2c2ccccc2)cc1` (stereo not drawn) [Example 28, N-hydroxy-4-(((2-phenylcyclopropyl)amino)methyl)benzamide TFA Salt] as the compound, how does the “Metabolic stability HLM % remaining in 30 min” value [1] read?
Answer: The value was 73%.

Question: And the “Metabolic stability MLM % remaining in 30 min” value [2]?
Answer: The value was 35%.

Question: And the IC50 (LSD1)?
Answer: The IC50 was 23 nM.

Question: For `N#Cc1ccc(-c2ccc(C3CC3NCC3CCN(CCCc4ccc(C(=O)NO)cc4)CC3)cc2)cc1` (stereo not drawn) [Example 59, 4-(3-(4-(((2-(4′-cyano-[1,1′-biphenyl]-4-yl)cyclopropyl)amino)methyl)piperidin-1-yl)propyl)-N-hydroxybenzamide TFA Salt], which “Metabolic stability HLM % remaining in 30 min” value [1] is on record?
Answer: Its value is 76%.

Question: What about the “Metabolic stability MLM % remaining in 30 min” value [2] of the same compound?
Answer: Its value is 75%.

Question: And the IC50 (LSD1)?
Answer: The IC50 was 32 nM.

Question: Which results are given for `O=C(NO)c1csc(CCCN2CCC(CNC3CC3c3ccc(-c4ccc(F)cc4)cc3)CC2)n1` (stereo not drawn) [Example 111, 2-(3-(4-(((2-(4′-fluoro-[1,1′-biphenyl]-4-yl)cyclopropyl)amino)methyl)piperidin-1-yl)propyl)-N-hydroxythiazole-4-carboxamide TFA Salt]?
Answer: EC50 (MM1S): 3060 nM; Metabolic stability HLM % remaining in 30 min [1]: 95%; Metabolic stability MLM % remaining in 30 min [2]: 91%; IC50 (LSD1): 22 nM

Question: Which “Metabolic stability HLM % remaining in 30 min” value [1] does the source give for `O=C(NO)c1ccc(CCCN2CCC(CNC3CC3c3ccc(C(=O)N4CCOCC4)cc3)CC2)cc1` (stereo not drawn) [Example 53, N-hydroxy-4-(3-(4-(((2-(4-(morpholine-4-carbonyl)phenyl)cyclopropyl)amino)methyl)piperidin-1-yl)propyl)benzamide TFA Salt] here?
Answer: Its value is 89%.

Question: What about the “Metabolic stability MLM % remaining in 30 min” value [2] of the same compound?
Answer: The value was 82%.

Question: And the IC50 (LSD1)?
Answer: The IC50 was 22 nM.

Question: Which EC50 (MM1S) does the source give for `O=C(NO)c1ccc(CCCN2CCC(CNC3CC3c3ccc(F)c(F)c3)CC2)cc1` (stereo not drawn) [Example 50, 4-(3-(4-(((2-(3,4-difluorophenyl)cyclopropyl)amino)methyl)piperidin-1-yl)propyl)-N-hydroxybenzamide TFA Salt] here?
Answer: Its EC50 is 35 nM.

Question: And the “Metabolic stability HLM % remaining in 30 min” value [1]?
Answer: Its value is 86%.

Question: And the “Metabolic stability MLM % remaining in 30 min” value [2]?
Answer: Its value is 80%.

Question: What about the IC50 (LSD1) of the same compound?
Answer: The IC50 was 29 nM.

Question: For `O=C(NO)c1ccc(CS(=O)(=O)NCCN2CCC(CNC3CC3c3ccccc3)CC2)cc1` (stereo not drawn) [Example 86, N-hydroxy-4-((N-(2-(4-(((2-phenylcyclopropyl)amino)methyl)piperidin-1-yl)ethyl)sulfamoyl)methyl)benzamide TFA Salt], which EC50 (MM1S) is on record?
Answer: Its EC50 is 676 nM.

Question: And the “Metabolic stability HLM % remaining in 30 min” value [1]?
Answer: The value was 71%.

Question: What about the “Metabolic stability MLM % remaining in 30 min” value [2] of the same compound?
Answer: The value was 58%.

Question: What about the IC50 (LSD1) of the same compound?
Answer: Its IC50 is 18 nM.

Question: With `O=C(NO)c1ccc(CN2CCC(CNC3CC3c3ccc(-c4cncnc4)cc3)CC2)cc1` (stereo not drawn) [Example 38, N-hydroxy-4-((4-(((2-(4-(pyrimidin-5-yl)phenyl)cyclopropyl)amino)methyl)piperidin-1-yl)methyl)benzamide TFA Salt] as the compound, how does the EC50 (MM1S) read?
Answer: The EC50 was 3640 nM.

Question: And the “Metabolic stability HLM % remaining in 30 min” value [1]?
Answer: Its value is 87%.

Question: What about the “Metabolic stability MLM % remaining in 30 min” value [2] of the same compound?
Answer: The value was greater than 95%.

Question: And the IC50 (LSD1)?
Answer: Its IC50 is 53 nM.

Question: Which results are given for `O=C(/C=C/c1ccc(CNC2CC2c2ccc(-c3cncnc3)cc2)cc1)NO` (stereo not drawn) [Example 7, (E)-N-hydroxy-3-(4-(((2-(4-(pyrimidin-5-yl)phenyl)cyclopropyl)amino)methyl)phenyl)acrylamide TFA Salt]?
Answer: EC50 (MM1S): 48 nM; Metabolic stability HLM % remaining in 30 min [1]: 70%; Metabolic stability MLM % remaining in 30 min [2]: < 5%; IC50 (LSD1): 27 nM

Question: For `Cc1noc(C)c1-c1ccc(C2CC2NCC2CCN(C(=O)/C=C/c3ccc(C(=O)NO)cc3)CC2)cc1` (stereo not drawn) [Example 116, (E)-4-(3-(4-(((2-(4-(3,5-dimethylisoxazol-4-yl)phenyl)cyclopropyl)amino)methyl)piperidin-1-yl)-3-oxoprop-1-en-1-yl)-N-hydroxybenzamide TFA Salt], which EC50 (MM1S) is on record?
Answer: Its EC50 is 157 nM.

Question: And the “Metabolic stability HLM % remaining in 30 min” value [1]?
Answer: Its value is 63%.

Question: And the “Metabolic stability MLM % remaining in 30 min” value [2]?
Answer: The value was 50%.

Question: What about the IC50 (LSD1) of the same compound?
Answer: The IC50 was 69 nM.

Question: What does the source list for `O=C(NO)c1ccc(CCC(=O)N2CCC(NC3CC3c3ccccc3)CC2)cc1` (stereo not drawn) [Example 83, N-hydroxy-4-(3-oxo-3-(4-((2-phenylcyclopropyl)amino)piperidin-1-yl)propyl)benzamide TFA Salt]?
Answer: EC50 (MM1S): 153 nM; Metabolic stability HLM % remaining in 30 min [1]: 69%; Metabolic stability MLM % remaining in 30 min [2]: 82%; IC50 (LSD1): 90 nM

Question: With `O=C(NO)c1ccc(OCCN2CCC(CNC3CC3c3ccc(F)cc3)CC2)nc1` (stereo not drawn) [Example 96, 6-(2-(4-(((2-(4-fluorophenyl)cyclopropyl)amino)methyl)piperidin-1-yl)ethoxy)-N-hydroxynicotinamide TFA Salt] as the compound, how does the EC50 (MM1S) read?
Answer: The EC50 was greater than 10000 nM.

Question: And the “Metabolic stability HLM % remaining in 30 min” value [1]?
Answer: The value was 93%.

Question: What about the “Metabolic stability MLM % remaining in 30 min” value [2] of the same compound?
Answer: Its value is 89%.

Question: And the IC50 (LSD1)?
Answer: Its IC50 is 22 nM.

Question: With `Cc1noc(C)c1-c1ccc(C2CC2NCC2CCN(Cc3ccc(C(=O)NO)cc3)CC2)cc1` (stereo not drawn) [Example 37, 4-((4-(((2-(4-(3,5-dimethylisoxazol-4-yl)phenyl)cyclopropyl)amino)methyl)piperidin-1-yl)methyl)-N-hydroxybenzamide TFA salt] as the compound, how does the EC50 (MM1S) read?
Answer: The EC50 was 1730 nM.

Question: What about the “Metabolic stability HLM % remaining in 30 min” value [1] of the same compound?
Answer: Its value is 86%.

Question: And the “Metabolic stability MLM % remaining in 30 min” value [2]?
Answer: Its value is 55%.

Question: And the IC50 (LSD1)?
Answer: The IC50 was 43 nM.

Question: Which EC50 (MM1S) does the source give for `O=C(NO)c1ccc(N2CCC(CNC3CC3c3ccc(F)cc3)CC2)cc1` (stereo not drawn) [Example 22, 4-(4-(((2-(4-fluorophenyl)cyclopropyl)amino)methyl)piperidin-1-yl)-N-hydroxybenzamide TFA Salt] here?
Answer: The EC50 was 44 nM.

Question: And the “Metabolic stability HLM % remaining in 30 min” value [1]?
Answer: The value was 60%.

Question: What about the “Metabolic stability MLM % remaining in 30 min” value [2] of the same compound?
Answer: Its value is 38%.

Question: What about the IC50 (LSD1) of the same compound?
Answer: The IC50 was 6400 nM.

Question: With `Cn1cc(-c2ccc(C3CC3NCC3CN(CCCc4ccc(C(=O)NO)cc4)C3)cc2)cn1` (stereo not drawn) [Example 63, N-hydroxy-4-(3-(3-(((2-(4-(1-methyl-1H-pyrazol-4-yl)phenyl)cyclopropyl)amino)methyl)azetidin-1-yl)propyl)benzamide TFA Salt] as the compound, how does the EC50 (MM1S) read?
Answer: Its EC50 is 191 nM.

Question: What about the “Metabolic stability HLM % remaining in 30 min” value [1] of the same compound?
Answer: The value was 86%.

Question: What about the “Metabolic stability MLM % remaining in 30 min” value [2] of the same compound?
Answer: The value was 69%.

Question: And the IC50 (LSD1)?
Answer: Its IC50 is 31 nM.

Question: With `Cc1noc(C)c1-c1ccc(C2CC2NCC2CCN(Cc3ccc(C(=O)NO)cn3)CC2)cc1` (stereo not drawn) [Example 39, 6-((4-(((2-(4-(3,5-dimethylisoxazol-4-yl)phenyl)cyclopropyl)amino)methyl)piperidin-1-yl)methyl)-N-hydroxynicotinamide TFA Salt] as the compound, how does the EC50 (MM1S) read?
Answer: Its EC50 is 2970 nM.

Question: And the “Metabolic stability HLM % remaining in 30 min” value [1]?
Answer: Its value is 87%.

Question: And the “Metabolic stability MLM % remaining in 30 min” value [2]?
Answer: Its value is greater than 95%.

Question: And the IC50 (LSD1)?
Answer: The IC50 was 34 nM.
